Results published in patent US20150105252A1, “SUBSTITUTED PYRAZOLES AS HERBICIDES” (E I DU PONT DE NEMOURS AND COMPANY, priority 2013, published 2015).

What was measured:
velvetleaf = test: Test A postemergence; assay type: in vivo, Abutilon theophrasti
In short: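 After sowing in a sand–loam mix, pots received compound preemergence by directed soil spray, or postemergence once plants reached the one- to two-leaf stage (2–10 cm). Formulation contained surfactant in a non-phytotoxic solvent. Injury was scored visually after ~10 greenhouse days, 0–100 scale.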

blackgrass = test: Test C preemergence; assay type: in vivo, Alopecurus myosuroides; settings: for Plant response rating (scale of 0 to 100), Blackgrass: Preemergence, 250 g ai/ha
In short: (§1)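 Pre- and postemergence greenhouse screen; vehicle was a non-phytotoxic solvent mix with surfactant. Preemergence: treatment applied right after sowing into loam and sand. Postemergence: treated at 1–4 leaves. Visual rating at 13–15 days, 100 = complete control.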

wheat [1] = test: Test C preemergence; assay type: in vivo, Triticum aestivum; settings: for Plant response rating (scale of 0 to 100), Wheat: Preemergence, 250 g ai/ha
In short: as §1

galium = test: Test C preemergence; assay type: in vivo, Galium aparine; settings: for Plant response rating (scale of 0 to 100), Galium: Preemergence, 250 g ai/ha
In short: as §1

corn = test: Test C preemergence; assay type: in vivo, Zea mays; settings: for Plant response rating (scale of 0 to 100), Corn: Preemergence, 250 g ai/ha
In short: as §1

pigweed = test: Test C preemergence; assay type: in vivo, Amaranthus retroflexus; settings: for Plant response rating (scale of 0 to 100), Pigweed: Preemergence, 250 g ai/ha
In short: as §1

ragweed = test: Test C preemergence; assay type: in vivo, Ambrosia elation; settings: for Plant response rating (scale of 0 to 100), Ragweed: Preemergence, 250 g ai/ha
In short: as §1

soybean = test: Test C preemergence; assay type: in vivo, Glycine max; settings: for Plant response rating (scale of 0 to 100), Soybean: Preemergence, 250 g ai/ha
In short: as §1

oilseed rape = test: Test C preemergence; assay type: in vivo, Brassica napus; settings: for Plant response rating (scale of 0 to 100), Oilseed Rape: Preemergence, 250 g ai/ha
In short: as §1

waterhemp = test: Test C preemergence; assay type: in vivo, Amaranthus rudis; settings: for Plant response rating (scale of 0 to 100), Waterhemp: Preemergence, 250 g ai/ha
In short: as §1

wheat [2] = test: Test C postemergence; assay type: in vivo, Triticum aestivum; settings: for Plant response rating (scale of 0 to 100 where 0 is no effect and 100 is complete control), Wheat: Postemergence, 31 g ai/ha, visually evaluated after 13 to 15 days; for Wheat plant response rating / Plant response rating, Wheat: postemergence; for Wheat plant response rating: 62 g ai/ha, scale 0 to 100
In short: as §1

foxtail, giant = test: Test C postemergence; assay type: in vivo, Setaria faberii; settings: for Plant response rating (scale of 0 to 100 where 0 is no effect and 100 is complete control), Foxtail, Giant: Postemergence, 31 g ai/ha, visually evaluated after 13 to 15 days; for Foxtail, Giant plant response rating / Plant response rating, Foxtail, Giant: postemergence; for Foxtail, Giant plant response rating: 62 g ai/ha, scale 0 to 100
In short: as §1

johnsongrass = test: Test C postemergence; assay type: in vivo, Sorghum halepense; settings: for Plant response rating (scale of 0 to 100 where 0 is no effect and 100 is complete control), Johnsongrass: Postemergence, 31 g ai/ha, visually evaluated after 13 to 15 days; for Johnsongrass plant response rating / Plant response rating, Johnsongrass: postemergence; for Johnsongrass plant response rating: 62 g ai/ha, scale 0 to 100
In short: as §1

lambsquarters = test: Test C postemergence; assay type: in vivo, Chenopodium album; settings: for Plant response rating (scale of 0 to 100 where 0 is no effect and 100 is complete control), Lambsquarters: Postemergence, 31 g ai/ha, visually evaluated after 13 to 15 days; for Lambsquarters plant response rating / Plant response rating, Lambsquarters: postemergence; for Lambsquarters plant response rating: 62 g ai/ha, scale 0 to 100
In short: as §1

chickweed = test: Test C postemergence; assay type: in vivo, Stellaria media; settings: for Plant response rating (scale of 0 to 100 where 0 is no effect and 100 is complete control), Chickweed: Postemergence, 31 g ai/ha, visually evaluated after 13 to 15 days; for Chickweed plant response rating / Plant response rating, Chickweed: postemergence; for Chickweed plant response rating: 62 g ai/ha, scale 0 to 100
In short: as §1

[3] = postemergence, 125 g ai/ha, about 10 days, visual rating on 0 to 100 scale (0 no effect, 100 complete control)
[4] = preemergence, 31 g ai/ha, visual rating, scale 0 to 100 (0 no effect, 100 complete control), 13 to 15 days
[5] = preemergence, 62 g ai/ha, scale 0 to 100 (0 no effect, 100 complete control), 13 to 15 days
[6] = preemergence, 125 g ai/ha, scale 0 to 100, 0 is no effect, 100 is complete control
[7] = 250 g ai/ha, scale 0 to 100 (0 no effect, 100 complete control)
[8] = 125 g ai/ha, scale 0 to 100, 0 no effect, 100 complete control
[9] = preemergence, 125 g ai/ha, 13 to 15 days, scale 0 to 100, 0 = no effect, 100 = complete control

CCCNC(=O)c1cc(CC)n(Cc2nc(C(F)(F)F)nn2C)n1 [Compound 109]
55: Plant response rating, Chickweed (chickweed; [8])
10: Galium plant response rating (galium; [4]) | Plant response rating (scale of 0 to 100 where 0 is no effect and 100 is complete control), Foxtail, Giant (foxtail, giant) | Foxtail, Giant plant response rating (foxtail, giant) | Plant response rating, Johnsongrass (johnsongrass; [7])
45: Plant response rating, Foxtail, Giant (foxtail, giant; [8]) | Plant response rating (scale of 0 to 100 where 0 is no effect and 100 is complete control), Lambsquarters (lambsquarters) | Lambsquarters plant response rating (lambsquarters)
70: Pigweed plant response rating (pigweed; [4]) | Soybean plant response rating (soybean; [4])
98: Plant response rating (scale of 0 to 100), Soybean (soybean) | Soybean plant response rating (soybean; [6])
50: Plant response rating, Foxtail, Giant (foxtail, giant; [7]) | Chickweed plant response rating (chickweed)
25: Corn plant response rating (corn; [4])
15: Wheat plant response rating (wheat [1]; [5])
100: Plant response rating (scale of 0 to 100), Blackgrass (blackgrass) | Blackgrass plant response rating (blackgrass; [4]) | Blackgrass plant response rating (blackgrass; [5]) | Blackgrass plant response rating (blackgrass; [6]) | Plant response rating (scale of 0 to 100), Galium (galium) | Galium plant response rating (galium; [5]) | Galium plant response rating (galium; [6]) | Plant response rating (scale of 0 to 100), Corn (corn) | Plant response rating (scale of 0 to 100), Pigweed (pigweed) | Pigweed plant response rating (pigweed; [5]) | Pigweed plant response rating (pigweed; [6]) | Plant response rating (scale of 0 to 100), Ragweed (ragweed) | Ragweed plant response rating (ragweed; [4]) | Ragweed plant response rating (ragweed; [5]) | Ragweed plant response rating (ragweed; [6]) | Plant response rating (scale of 0 to 100), Oilseed Rape (oilseed rape) | Oilseed Rape plant response rating (oilseed rape; [5]) | Oilseed Rape plant response rating (oilseed rape; [6]) | Plant response rating (scale of 0 to 100), Waterhemp (waterhemp) | Waterhemp plant response rating (waterhemp; [5]) | Waterhemp plant response rating (waterhemp; [6])
75: Waterhemp plant response rating (waterhemp; [4])
0: Wheat plant response rating (wheat [1]; [4]) | Plant response rating (scale of 0 to 100 where 0 is no effect and 100 is complete control), Wheat (wheat [2]) | Wheat plant response rating (wheat [2]) | Plant response rating, Wheat (wheat [2]; [7]) | Plant response rating, Wheat (wheat [2]; [8])
40: Oilseed Rape plant response rating (oilseed rape; [4]) | Plant response rating (scale of 0 to 100 where 0 is no effect and 100 is complete control), Chickweed (chickweed)
5: Plant response rating (scale of 0 to 100 where 0 is no effect and 100 is complete control), Johnsongrass (johnsongrass) | Johnsongrass plant response rating (johnsongrass) | Plant response rating, Johnsongrass (johnsongrass; [8])
90: Velvetleaf plant response rating (velvetleaf; Postemergence, 500 g ai/ha, visual rating after approx. 10 days, 0 to 100 scale (0 no effect, 100 complete control))
95: Corn plant response rating (corn; [6]) | Soybean plant response rating (soybean; [5])
85: Plant response rating (scale of 0 to 100), Wheat (wheat [1]) | Wheat plant response rating (wheat [1]; [6]) | Corn plant response rating (corn; [5]) | Plant response rating, Lambsquarters (lambsquarters; [7])
60: Velvetleaf plant response rating (velvetleaf; [3])
65: Plant response rating, Lambsquarters (lambsquarters; [8]) | Plant response rating, Chickweed (chickweed; [7])

CCONC(=O)c1cc(CC)n(Cc2ccnc(OC(F)F)c2)n1 [Compound 131]
0: Plant response rating (scale of 0 to 100 where 0 is no effect and 100 is complete control), Johnsongrass (johnsongrass) | Johnsongrass plant response rating (johnsongrass) | Plant response rating, Johnsongrass (johnsongrass; [8])
50: Plant response rating, Wheat (wheat [1]; [9]) | Plant response rating, Foxtail, Giant (foxtail, giant; [7])
80: Blackgrass plant response rating (blackgrass; [5]) | Plant response rating, Chickweed (chickweed; [7])
15: Plant response rating (scale of 0 to 100 where 0 is no effect and 100 is complete control), Lambsquarters (lambsquarters)
95: Plant response rating, Blackgrass (blackgrass; [9]) | Plant response rating (scale of 0 to 100), Wheat (wheat [1]) | Plant response rating, Corn (corn; [9]) | Oilseed Rape plant response rating (oilseed rape; [4])
75: Galium plant response rating (galium; [5]) | Plant response rating, Galium (galium; [9]) | Ragweed plant response rating (ragweed; [4])
65: Plant response rating, Lambsquarters (lambsquarters; [8])
70: Plant response rating (scale of 0 to 100 where 0 is no effect and 100 is complete control), Chickweed (chickweed) | Chickweed plant response rating (chickweed) | Plant response rating, Chickweed (chickweed; [8])
5: Plant response rating (scale of 0 to 100 where 0 is no effect and 100 is complete control), Wheat (wheat [2]) | Wheat plant response rating (wheat [2]) | Plant response rating (scale of 0 to 100 where 0 is no effect and 100 is complete control), Foxtail, Giant (foxtail, giant)
45: Wheat plant response rating (wheat [1]; [4])
30: Soybean plant response rating (soybean; [4])
10: Plant response rating, Wheat (wheat [2]; [7]) | Plant response rating, Wheat (wheat [2]; [8]) | Foxtail, Giant plant response rating (foxtail, giant) | Plant response rating, Johnsongrass (johnsongrass; [7])
98: Plant response rating (scale of 0 to 100), Blackgrass (blackgrass) | Plant response rating (scale of 0 to 100), Galium (galium) | Plant response rating (scale of 0 to 100), Corn (corn) | Plant response rating (scale of 0 to 100), Soybean (soybean) | Plant response rating, Oilseed Rape (oilseed rape; [9])
40: Blackgrass plant response rating (blackgrass; [4]) | Corn plant response rating (corn; [4]) | Soybean plant response rating (soybean; [5]) | Plant response rating, Foxtail, Giant (foxtail, giant; [8]) | Lambsquarters plant response rating (lambsquarters)
55: Galium plant response rating (galium; [4])
100: Velvetleaf plant response rating (velvetleaf; Postemergence, 500 g ai/ha, 0 to 100 scale (0 no effect, 100 complete control)) | Plant response rating (scale of 0 to 100), Pigweed (pigweed) | Pigweed plant response rating (pigweed; [4]) | Pigweed plant response rating (pigweed; [5]) | Plant response rating, Pigweed (pigweed; [9]) | Plant response rating (scale of 0 to 100), Ragweed (ragweed) | Plant response rating, Ragweed (ragweed; [9]) | Plant response rating (scale of 0 to 100), Oilseed Rape (oilseed rape) | Oilseed Rape plant response rating (oilseed rape; [5]) | Plant response rating (scale of 0 to 100), Waterhemp (waterhemp) | Waterhemp plant response rating (waterhemp; [4]) | Waterhemp plant response rating (waterhemp; [5]) | Plant response rating, Waterhemp (waterhemp; [9])
90: Velvetleaf plant response rating (velvetleaf; [3]) | Corn plant response rating (corn; [5])
85: Wheat plant response rating (wheat [1]; [5]) | Ragweed plant response rating (ragweed; [5]) | Plant response rating, Soybean (soybean; [9]) | Plant response rating, Lambsquarters (lambsquarters; [7])
